Measurements from patent US7199285B2, “Modulation of abscisic acid signal transduction in plants” (University of California, San Diego, priority 2000, dated 2007).

How the values were obtained:
[1] = system: guard cells; assay: time-resolved cameleon [Ca2+]cyt imaging of ABA-induced [Ca2+]cyt elevations; assay type: cell-based, Arabidopsis thaliana
Method: Due to the basal regulation of anion and K^+ channels in abh1 without addition of exogenous ABA, experiments were pursued to analyze whether mechanisms lying further upstream confer ABA hypersensitivity in abh1. […] Therefore we directly investigated whether abh1 modulates ABA-induced [Ca^2+]cyt elevations in time-resolved cameleon [Ca^2+]cyt imaging experiments (G. J. Allen et al, The Plant J., 19:735 (1999)). Stomata were opened by exposing plants for 12 hours to 95% humidity.

[2] = system: guard cells; assay: stomatal closure in response to ABA; assay type: cell-based, Arabidopsis thaliana; settings: abh1, stomata opened 12 hours at 95% humidity
Method: ABH1 is expressed in guard cells. To determine whether ABH1 modulates early ABA signal transduction elements, stomatal closure in response to ABA was investigated. Stomata were opened by exposing plants for 12 hours to high humidity (95%). Under these conditions stomatal apertures were similar in wild-type and abh1 (2.03±0.19 μm, wild-type, n=60; 1.92±0.21 μm, abh1, n=60; P>0.38). Stomatal closure in abh1 was ABA hypersensitive compared to wild-type (P<0.001). When stomatal apertures were measured in leaves harvested directly from plants grown under lower humidity (40%), without exogenous ABA addition, stomatal apertures of abh1 were smaller than those of wild-type plants (P<0.001), possibly resulting from a hypersensitive response to endogenous ABA.

[3] = system: abh1 mutant; assay: seed germination, hypocotyl and root growth assays in the presence of hormones; assay type: in vivo, Arabidopsis thaliana; settings: abh1, hormone concentrations from 10 nM to 100 μM
Method: Other hormone signaling mutants were analyzed in control experiments: axr1–3 (auxin insensitive) (C. Lincoln et al., Plant Cell, 2:1071(1990)), ein2-1 (ethylene insensitive) (J. M. Alonso et al., Science, 284:2148 (1999)), gai-1 (GA insensitive) (M. Koornneef et al., Physiol Plant., 65:33 (1985)), era1-2 (ABA hypersensitive) (S. Cutler et al., Science, 273:1239 (1996))), and jar1-1 (JA insensitive) (P. E. Staswick et al., Proc. Natl. Acad. Sci. U.S.A., 89:6837 (1992)).

[4] = system: Arabidopsis thaliana seeds; assay: seed germination on minimum medium with ABA; assay type: in vivo; settings: 0.3 μM ABA
Method: This was carried out using Arabidopsis lines (Columbia background, T3 seeds), which were transformed with a T-DNA (SK1015) (D. Weigel et al., Plant Physiol., 122:1003 (2000)), and plated on minimum medium (0.25×MS) with 0.3 μM ABA. After 4 days at 4° C., seeds were transferred to 28° C., continuous light. After 5 more days, germination was analyzed. Non-germinated seeds were transferred to soil and further analyzed.

SMILES	cells responding with one [Ca2+]cyt elevation ([1]; abh1, 0.5 μM ABA)	cells showing multiple repetitive [Ca2+]cyt increases ([1]; abh1, 0.5 μM ABA)	cells showing no response ([1]; abh1, 0.5 μM ABA)	guard cells showing [Ca2+]cyt increases ([1]; abh1, 0.5 μM ABA)	average peak increase of [Ca2+]cyt ([1]; wild-type, 0.5 μM ABA)	guard cells showing [Ca2+]cyt increase (typically only one) ([1]; wild-type, 0.5 μM ABA)	guard cells showing no [Ca2+]cyt increase ([1]; wild-type, 0.5 μM ABA)	stomatal closure sensitivity compared to wild-type [2]	phenotypic response (sensitivity) of abh1 mutant to hormone [3]	germination ([4]; abh1 mutant seeds)	germination ([4]; wild-type seeds)
CC1=CC(=O)CC(C)(C)[C@@]1(O)/C=C/C(C)=C\C(=O)O [ABA, abscisic acid]	19%	45%	36%	64%	170 ± 25 nM	44%	56%	hypersensitive	showed phenotypic responses only to ABA	inhibited	allowed germination
C=C1C[C@]23C[C@@]1(O)CC[C@H]2[C@@]12C=C[C@H](O)[C@@](C)(C(=O)O1)[C@H]2[C@@H]3C(=O)O [GA, gibberellic acid]									slightly reduced sensitivity		
